{"source": "patent US9987381B2", "about": "“Radioligands for imaging the LPA-1 receptor” (BRISTOL-MYERS SQUIBB COMPANY, priority 2013, dated 2018)", "key": {"LPA1 receptor": {"target": "T1, LPA1 receptor (Mus musculus, UniProt P61793)", "T1 construct": "Fresh tissues from naïve mouse lungs and bleomycin treated lungs were immersed into OCT; from tissue; host or cells: lung sections (10 µm) of naïve and bleomycin-treated female C57BL/6 mice", "T1 sequence (P61793 whole entry)": "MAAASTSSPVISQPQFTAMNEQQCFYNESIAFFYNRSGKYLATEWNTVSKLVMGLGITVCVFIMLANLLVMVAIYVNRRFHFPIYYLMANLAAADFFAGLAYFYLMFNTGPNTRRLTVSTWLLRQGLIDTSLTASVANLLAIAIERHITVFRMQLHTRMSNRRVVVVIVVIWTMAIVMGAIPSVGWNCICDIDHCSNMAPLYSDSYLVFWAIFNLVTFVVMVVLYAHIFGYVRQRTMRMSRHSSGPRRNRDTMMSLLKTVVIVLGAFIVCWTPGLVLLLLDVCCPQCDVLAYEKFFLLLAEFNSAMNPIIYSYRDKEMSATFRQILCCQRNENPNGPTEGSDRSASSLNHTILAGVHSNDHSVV", "assay": "In vitro autoradiography of mouse lung sections: [18F] radioligand binding and displacement by blocking compound", "details": "for displacement of [18F] radioligand vs total binding: 3.9 nM radioligand", "method": "The naïve lung mouse tissues were collected from female C57BL/6 mice (8-10 weeks old; 18-25 grams), the samples were stored in −80° C. degree freezer until use. The bleomycin treated animals consists of female C57BL/6 mice (8-10 weeks old; 18-25 grams) were anesthetized with 5% isoflurane the day before study initiation. Bleomycin was dissolved into sterile phosphate buffered saline to a concentration of 500 μg/ml. For injection, mice were anesthetized with 5% isoflurane and using a 1 cc syringe with a 27 g needle, 100 μl of the stock bleomycin solution was injected subcutaneously (SC) into the center of each shaved region (50 μg/site). The bleomycin was administered 5 days/week, Monday through Friday, and was injected into the same region each day until Day 28. Specifically the left lobe of lung was harvested and inflated using a 1:1 OCT (which consists of a mixture 10.24% w/w polyvinyl alcohol 4.26% w/w polyethylene glycol 85.50 w/w non-reactive ingredients)/phosphate buffered saline mixture.\nFresh tissues from naïve mouse lungs and bleomycin treated lungs were immersed into OCT and chilled in 2-methylbutane for 2-5 minutes until frozen. The tissues were then wrapped in foil/ZIPLOC® bag and stored at −80° C. Tissue sections of 10 μm thickness (collected as 2 sections/slide) were cut using a cryostat and thaw-mounted on glass microscope slides, allowed to air dry for approximately 30 minutes. Blocking studies with 1-(4′-(3-methyl-4-(((l-phenylethoxy)carbonyl)amino)isoxazol-5-yl)-[1,1′-biphenyl]-4-yl)cyclopropanecarboxylic acid at 0.1 nM, 1 nM and 10 nM respectively were conducted using the following conditions. The individual slides, 4 slides per concentration, were pre-incubated in a mixture of 50 mM Hepes, […], pH=7.4 and 0.05% Tween-20 buffer solution that contains only this buffer (total binding), as well as […] 1-(4′-(3-methyl-4-(((l-phenylethoxy)carbonyl)amino)isoxazol-5-yl)-[1,1′-biphenyl]-4-yl)cyclopropanecarboxylic acid, 1 nM 1-(4′-(3-methyl-4-(((1-phenylethoxy)carbonyl)amino)isoxazol-5-yl)-[1,1′-biphenyl]-4-yl)cyclopropanecarboxylic acid and 10 nM 1-(4′-(3-methyl-4-(((1-phenylethoxy)carbonyl)amino)isoxazol-5-yl)-[1,1′-biphenyl]-4-yl)cyclopropanecarboxylic acid for a 3 hour period. These individual slides were then incubated in the buffer solution containing 3.9 nM of [^18F]-1-(4′-(4-((((3-(fluoromethyl)benzyl)oxy)carbonyl)amino)-3-methylisoxazol-5-yl)-[1,1′-biphenyl]-4-yl)cyclopropanecarboxylic acid that was formulated in 10% ethanol 90% 0.5% sodium bicarbonate. This solution was diluted with 300 ml of buffer solution to generate a stock solution. From this stock solution, 40 ml was added to each incubation chamber. One of these chambers contained only the radioligand buffer solution, which is referred to as the total binding section. An additional 40 ml was added to each incubation chamber along with the relevant concentration of blocking compound (1-(4′-(3-methyl-4-(((1-phenylethoxy)carbonyl)amino)isoxazol-5-yl)-[1,1′-biphenyl]-4-yl)cyclopropanecarboxylic acid at 0.1 nM, 1 nM, 10 nM). Then the individual slides were incubated in the buffer solution containing the [^18F]-1-(4′-(4-((((3-(fluoromethyl)benzyl)oxy)carbonyl)amino)-3-methylisoxazol-5-yl)-[1,1′-biphenyl]-4-yl)cyclopropanecarboxylic acid radioligand and blocking compound for 1.5 hours at room temperature to reach maximum binding. After 4.5 hours of total incubation, slides from each treatment group were removed from the incubation solutions and placed in an ice-cold wash buffer (50 mM Hepes, 100 mM NaCl, and 0.05% Tween-20, pH=7.4) and rinsed 4 times. Slides were then dried under a stream of cold air for approximately 1 hour. The air-dried slides were exposed by placing the slides onto an imaging plate (BAS-SR 3545S) for 15 minutes at room temperature. The imaging plate was scanned using the bioimaging analyzer (Fujifilm Fluorescent Image Analyzer, FLA-9000). The pixel size of the autoradiogram images was 100 μm. […]"}, "LPA1": {"target": "T2, LPA1 (Macaca mulatta, UniProt H9EN64)", "T2 construct": "from tissue; host or cells: lung of living anaesthetised rhesus monkeys (in vivo PET)", "T2 sequence (H9EN64 1-364)": "as the sequence (P61793 whole entry) above, with A4I, S8I, Q22P, Y40H, V61I, D193E, H194N, V269I, N331S, N335S counted along it", "assay": "PET blocking study of [11C]-BMT-136088 with BMS-986020", "assay_type": "in vivo, rhesus monkeys", "method": "For the blocking data reanalyzed here, each animal was scanned twice during the administration of [^11C]-BMT-136088, using a bolus plus infusion (B+I) protocol: at baseline first, then during the administration of the blocking drug, BMS-986020, also using a bolus plus infusion protocol.\nIn the blocking study, BMS-986020 was administered i.v. using a 10-min bolus ([…]) followed by a ˜230 min infusion (0.25 mg/kg/hr) for a total dose of 1.224±0.015 mg/kg.\nTwo rhesus monkeys were included in the blocking, test-retest, and saturation studies: one male, one female; age=4.8±0.8 y; weight=8.6±0.4 kg. Studies in the same animal were separated by at least 2 weeks to allow the animal to recover from anesthesia and other effects. Four rhesus monkeys (2M, 2F) were included in the dosimetry study.\nFollowing a low-dose, CT scan used for attenuation correction and to delineate the lung regions of interest, [^11C]-BMT-136088 was injected using a computer-control pump with a bolus plus infusion protocol, with an initial 1-min bolus and a ˜119-min infusion. The volume injected during the initial bolus represented 100 min (Kbol) worth of infusion in the blocking and test-retest study, and 300 min worth of infusion in the saturation study.\nBeginning at the start of each injection, a 120-minute time-of-flight list-mode acquisition on the mCT PET/CT scanner (Siemens Medical Solutions USA, Inc.) was performed. Dynamic PET scan data were reconstructed with corrections for point-spread function, attenuation, normalization, scatter, randoms, and dead time using a 3D OP-OSEM TOF algorithm. PET images were reconstructed into 33 frames, with the following frame timing: 6×30 sec; 3×1 min; 2×2 min; 22×5 min. Each frame contained 400×400×111 (x,y,z) voxels (2.04×2.04×2.0 mm).\nBlood samples for PK for each blockade study session were obtained at −1, 60, 90, 120, 150, 210, 240 and 270 minutes after the start of BMS-986020 bolus plus infusion. Red cells were precipitated at 3200 rpm for 10 minutes at 10° C.; the plasma was divided into two aliquots and frozen at −80° C. until shipped for analysis. […]"}}}
{"smiles": "Cc1noc(-c2ccc(-c3ccc(C4(C(=O)O)CC4)cc3)cc2)c1NC(=O)OC(C)c1ccccc1", "note": "(centres unmarked) [1-(4′-(3-methyl-4-(((1-phenylethoxy)carbonyl)amino)isoxazol-5-yl)-[1,1′-biphenyl]-4-yl)cyclopropanecarboxylic acid]", "values": [{"measurement": "radioligand displacement (FIG. 2)", "setting": "LPA1 receptor; 10 nM blocking compound, naïve and bleomycin treated mouse lung sections", "value": "~80", "unit": "%"}, {"measurement": "displacement of [18F] radioligand vs total binding", "setting": "LPA1 receptor; bleomycin treated mouse lung tissue sections, 0.1 nM blocking compound", "value": "11.3+/−4.2%"}, {"measurement": "displacement of [18F] radioligand vs total binding", "setting": "LPA1 receptor; bleomycin treated mouse lung tissue sections, 1 nM blocking compound", "value": "55.5+/−2.3%"}, {"measurement": "displacement of [18F] radioligand vs total binding", "setting": "LPA1 receptor; bleomycin treated mouse lung tissue sections, 10 nM blocking compound", "value": 82.7, "unit": "%+/−1.4"}, {"measurement": "displacement of [18F] radioligand vs total binding", "setting": "LPA1 receptor; naïve mouse lung tissue sections, 0.1 nM blocking compound", "value": "18.2+/−7.6%"}, {"measurement": "displacement of [18F] radioligand vs total binding", "setting": "LPA1 receptor; naïve mouse lung tissue sections, 1 nM blocking compound", "value": "57.3+/−2.6%"}, {"measurement": "displacement of [18F] radioligand vs total binding", "setting": "LPA1 receptor; naïve mouse lung tissue sections, 10 nM blocking compound", "value": 72.6, "unit": "%+/−6.7"}]}
{"smiles": "Cc1noc(-c2ccc(-c3ccc(C4(C(=O)O)CC4)cc3)cc2)c1NC(=O)O[C@H](C)c1ccccc1", "note": "[BMS-986020]", "values": [{"measurement": "blockade effect", "setting": "LPA1; VT by MA1, all corrections incl. lung density and blood radioactivity, BMS-986020 i.v. bolus plus infusion", "value": "54±11", "unit": "%"}, {"measurement": "occupancy of LPA1 binding", "setting": "LPA1; at 1.25 mg/kg", "value": "~100", "unit": "%"}, {"measurement": "receptor occupancy at 1.25 mg/kg", "setting": "LPA1; rhesus monkey, at 1.25 mg/kg, read-out: occupancy of LPA1 binding", "value": "103 ± 20", "unit": "%"}]}
{"smiles": "Cc1noc(-c2ccc(-c3ccc(C4(C(=O)O)CC4)cc3)cc2)c1NC(=O)OCc1cccc(C[18F])c1", "note": "[[^18F]-1-(4′-(4-((((3-(fluoromethyl)benzyl)oxy)carbonyl)amino)-3-methylisoxazol-5-yl)-[1,1′-biphenyl]-4-yl)cyclopropanecarboxylic acid]", "values": [{"measurement": "localisation of radioligand binding in lung", "setting": "LPA1 receptor; bleomycin treated mouse lung section, trichrome collagen staining, FIG. 1", "value": "resides within positive collagen"}]}
